This note sets out measurements from PubChem BioAssay AID1918996 (Molecular Pharmacology Branch, DTP, NCI, 2023).

pIC50: −log10 of the molar value. “And” between values parts separate entries of the source, which are not always exact repeats. Equal values may be shown once.

In this experiment the test system is 349418-098-R-PDC complex spheroid growth. The experiment in a line: Anticancer human tumor 349418-098-R-PDC patient-derived lung adenocarcinoma cell line growth inhibition [AhR]. The following applies: for viability, T/C: stronger effect = lower value. From the text:
Multicellular complex tumor spheroid response to aryl hydrocarbon receptor antagonists in combination with a variety of drugs and investigational agents in selected tumor cell lines
The current study was undertaken to assess response to aryl hydrocarbon receptor antagonists in combination with standard-of-care drugs and investigational agents in solid tumor complex spheroid models. Complex spheroids include a stromal component modeled by human endothelial cells (HUVEC) and fibroblasts modeled by human mesenchymal stem cells (MSCs). The concentration ranges selected for each drug and investigational agent were based upon clinically achievable concentrations if the clinical Cmax of the agent was known.
Compounds. The drugs and investigational agents: BAY 2416964 (NSC825713), GNF351 (NSC835774), CH-223191 (NSC835775), CPI-455 (NSC825282), aza-TdCyd (NSC777586), decitabine (NSC127716), belinostat (NSC758774), entinostat (NSC756642), pevonedistat (NSC761192), tazemetostat (NSC777109), talazoparib (NSC765396), olaparib (NSC753686), selinexor (NSC780203), nedisertib (M3814, NSC802822), bortezomib (NSC756655), venetoclax (NSC766270), doxorubicin (NSC123127), elimusertib (BAY189344, NSC800525), ceralasertib (AZD6738, NSC777638), TAK-243 (NSC785004), alisertib (NSC759677), etoposide (NSC141540), topotecan (NSC609699), eribulin (NSC707389), gemcitabine (NSC613327), carboplatin (NSC241240), cisplatin (NSC119875), and SN-38 (NSC673596) were obtained from the National Cancer Institute (NCI) Developmental Therapeutics Program Chemical Repository (32). The FDA-approved anticancer drug set is available from the Developmental Therapeutics Program at https://dtp.cancer.gov/organization/dscb/obtaining/available plates.htm. […] The stock solutions were prepared in dimethyl sulfoxide (DMSO, Sigma-Aldrich, St. Louis, MO, cat. D2650), except for the platinum compounds which were prepared in saline (Quality Biological, Gaithersburg, MD, cat. 114-055-101), at 800-fold the tested concentration and stored at -70 degrees C prior to their use. All drugs and investigational agents were tested over a range starting from a high concentration at or near the clinical Cmax and decreasing in half-log increments. If the clinical Cmax for an agent had not been determined, the highest concentration tested was 10 microM (Table 1).
Cell Culture. All cells were maintained in an incubator at 37 degrees C and 5% CO2 with 95% humidity. The PDC lines were cultured according to standard operating procedures established by the NCI PDMR (https://pdmr.cancer.gov). Briefly, all PDCs were thawed and cultured in Matrigel-coated flasks prepared with a working solution of 1X Ham's F-12 nutrient mix, without supplementation (Invitrogen, Waltham, MA, cat. 11765054), 100 U/mL penicillin-streptomycin (Invitrogen, cat. 15140122), and 2.5% Matrigel (Corning Inc., Corning, NY, cat. 354248) for the first three passages. All PDCs were cultured in complete DMEM/F-12 media containing advanced DMEM/F-12 (Invitrogen, cat. 12634028), 4.9% defined fetal bovine serum, heat inactivated (HyClone Laboratories Inc., Logan, UT, cat. SH30070.03HI), 389 ng/mL hydrocortisone (Sigma-Aldrich, cat. H4001), 9.7 ng/mL human EGF recombinant protein (Invitrogen, cat. PHG0313), 23.4 microg/mL adenine (Sigma-Aldrich, cat. A2786), 97.3 U/mL penicillin-streptomycin (Invitrogen, cat. 15140122), 1.9 mM L-glutamine (Invitrogen, cat. 25030081), and 9.7 microM Y-27632 dihydrochloride (Tocris Bioscience, Bristol, United Kingdom, cat. 1254). The PDCs were cultured in complete DMEM/F12 media without 10 microM Y-27632 dihydrochloride for at least two passages prior to the screen. The established cell lines NCI-H1341 and […] were cultured in DMEM/F-12, HEPES (Invitrogen, cat. 11330032), 5% defined fetal bovine serum (HyClone Laboratories Inc., cat. SH30070.03), ITS premix universal culture supplement [insulin (5 microg/mL), transferrin (5 microg/mL), and selenious acid (5 ng/mL)] […]

[1] abbreviates: curve of first compound, second compound 0.1 µM.
Setting [2] is: curve of first compound, second compound 0.316 µM.
[3] abbreviates: curve of first compound, second compound 1 µM.
Where [4] appears, read: curve of first compound, second compound 3.16 µM.
Setting [5] is: curve of first compound, second compound 10 µM.
Where [6] appears, read: second compound 0.1 µM, first compound 0.0316 µM.
[7] abbreviates: second compound 0.1 µM, first compound 0.1 µM.
Where [8] appears, read: second compound 0.1 µM, first compound 0.316 µM.
[9] abbreviates: second compound 0.1 µM, first compound 1 µM.
Setting [10] is: second compound 0.1 µM, first compound 3.16 µM.
Setting [11] is: second compound 0.1 µM, first compound 10 µM.
[12] abbreviates: second compound 0.316 µM, first compound 0.0316 µM.
Setting [13] is: second compound 0.316 µM, first compound 0.1 µM.
Setting [14] is: second compound 0.316 µM, first compound 0.316 µM.
Setting [15] is: second compound 0.316 µM, first compound 1 µM.
Setting [16] is: second compound 0.316 µM, first compound 3.16 µM.
[17] abbreviates: second compound 0.316 µM, first compound 10 µM.
The mark [18] stands for this setting: second compound 1 µM, first compound 0.0316 µM.
The mark [19] stands for this setting: second compound 1 µM, first compound 0.1 µM.
[20] abbreviates: second compound 1 µM, first compound 0.316 µM.
Setting [21] is: second compound 1 µM, first compound 1 µM.
[22] abbreviates: second compound 1 µM, first compound 3.16 µM.
The mark [23] stands for this setting: second compound 1 µM, first compound 10 µM.
Setting [24] is: second compound 3.16 µM, first compound 0.0316 µM.
Where [25] appears, read: second compound 3.16 µM, first compound 0.1 µM.
[26] abbreviates: second compound 3.16 µM, first compound 0.316 µM.
Setting [27] is: second compound 3.16 µM, first compound 1 µM.
The mark [28] stands for this setting: second compound 3.16 µM, first compound 3.16 µM.
Setting [29] is: second compound 3.16 µM, first compound 10 µM.
The mark [30] stands for this setting: second compound 10 µM, first compound 0.0316 µM.
The mark [31] stands for this setting: second compound 10 µM, first compound 0.1 µM.
The mark [32] stands for this setting: second compound 10 µM, first compound 0.316 µM.
[33] abbreviates: second compound 10 µM, first compound 1 µM.
Setting [34] is: second compound 10 µM, first compound 3.16 µM.
Where [35] appears, read: second compound 10 µM, first compound 10 µM.
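Note: spheroids exposed to agents for seven days before luminescence viability read.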
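Throughout, for viability, T/C: spheroids also contain HUVEC endothelial cells and human MSC stroma.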

Regarding `COc1ccc([C@@H](O)c2cc(-c3ncnc4cc(N5CCOCC5)ccc34)c(F)cc2Cl)nn1` + CC(CO)NC(=O)c1cc(-c2ccc(Cl)cc2)nn(-c2cnn(C)c2)c1=O, the pIC50 is, setting by setting: under setting [1], 5.69; under setting [2], 5.90; under setting [3], 6.07; under setting [4], 5.97; under setting [5], 6.43. The viability, T/C under setting [6] was 81.3%; the viability, T/C under setting [7] is 89.9%; the viability, T/C under setting [8] was 62.5%; the viability, T/C under setting [9] is 75.7%; the viability, T/C under setting [10] was 35.3%; the viability, T/C under setting [11] is 13.8%. In addition, the viability, T/C by setting is: under setting [12], 89.3%; under setting [13], 89.7%; under setting [14], 87%; under setting [15], 55.5%; under setting [16], 25.4%; under setting [17], 15.4%. The viability, T/C is 96.9% under setting [18]; 119% under setting [19]; 97.1% under setting [20]; 41% under setting [21]; 41.2% under setting [22]; 13.2% under setting [23]. Further, the viability, T/C by setting is: under setting [24], 66.2%; under setting [25], 85.8%; under setting [26], 64.8%; under setting [27], 50.1%; under setting [28], 30%; under setting [29], 13.5%. The viability, T/C by setting is: under setting [30], 53.6%; under setting [31], 52.6%; under setting [32], 53.3%; under setting [33], 36.9%; under setting [34], 17%; under setting [35], 13.5%.
Turning to `NS(=O)(=O)OCC1CC(n2ccc3c(NC4CCc5ccccc54)ncnc32)CC1O` (centres undefined) + Cc1ccccc1N=Nc1ccc(NC(=O)c2ccnn2C)c(C)c1, the negative logarithm of the IC50 (pIC50) under setting [1] is 6.54; the negative-log IC50 (pIC50) under setting [2] was 6.71; the pIC50 under setting [3] was 6.66; the pIC50 under setting [4] is 6.88; the pIC50 under setting [5] is 7.20. Moreover, the viability, T/C under setting [6] is 96.6%; the viability, T/C under setting [7] is 81.3%; the viability, T/C under setting [8] is 46.1%; the viability, T/C under setting [9] is 22.6%; the viability, T/C under setting [10] was 11.4%; the viability, T/C under setting [11] was 10.5%. In addition, the viability, T/C by setting is: under setting [12], 75%; under setting [13], 63.8%; under setting [14], 39.2%; under setting [15], 24.9%; under setting [16], 11.8%; under setting [17], 10.2%. Further, the viability, T/C is 90.4% under setting [18]; 71.1% under setting [19]; 39% under setting [20]; 23.5% under setting [21]; 12% under setting [22]; 10.1% under setting [23]. Further, the viability, T/C is 68.5% under setting [24]; 58.1% under setting [25]; 26.3% under setting [26]; 20.2% under setting [27]; 11.9% under setting [28]; 9.47% under setting [29]. For the same compound, the viability, T/C under setting [30] was 65.3%; the viability, T/C under setting [31] is 38.9%; the viability, T/C under setting [32] is 27.1%; the viability, T/C under setting [33] was 18%; the viability, T/C under setting [34] was 10.8%; the viability, T/C under setting [35] was 9.27%.
With `CCc1c2c(nc3ccc(O)cc13)-c1cc3c(c(=O)n1C2)COC(=O)[C@]3(O)CC`, the viability, T/C is 55.3% and 67.2% and 40.5% (compound 0.000949 µM); 43.4% and 54.1% and 42.9% (compound 0.003 µM); 20.6% and 16% and 22.3% (compound 0.00949 µM); 7.29% and 12% and 8.26% (compound 0.03 µM); 3.4% and 8.26% and 6.22% (compound 0.0949 µM); 1.91% and 6.96% and 4.74% (compound 0.3 µM). Moreover, under “curve of compound”, the negative-log IC50 (pIC50) is 8.80 and 8.47 and > 9.02.
In the case of `O=C(c1cc(Cc2n[nH]c(=O)c3ccccc23)ccc1F)N1CCN(C(=O)C2CC2)CC1` + Cc1ccccc1N=Nc1ccc(NC(=O)c2ccnn2C)c(C)c1, the pIC50 runs as follows: under setting [1], 5.69; under setting [2], 5.21; under setting [3], 5.55; under setting [4], 6.18; under setting [5], 5.84. The viability, T/C is 81.3% under setting [6]; 73.2% under setting [7]; 91.4% under setting [8]; 62.1% under setting [9]; 44.9% under setting [10]; 39.6% under setting [11]. Besides, the viability, T/C runs as follows: under setting [12], 98%; under setting [13], 89%; under setting [14], 108%; under setting [15], 64%; under setting [16], 66.3%; under setting [17], 41.4%. The viability, T/C under setting [18] was 106%; the viability, T/C under setting [19] was 82.4%; the viability, T/C under setting [20] is 69.7%; the viability, T/C under setting [21] is 62.8%; the viability, T/C under setting [22] is 49.4%; the viability, T/C under setting [23] was 39.9%. Moreover, the viability, T/C reads like this: under setting [24], 76.9%; under setting [25], 69.9%; under setting [26], 63.4%; under setting [27], 41.8%; under setting [28], 41.3%; under setting [29], 43%. Further, the viability, T/C reads like this: under setting [30], 56.4%; under setting [31], 53.1%; under setting [32], 50.9%; under setting [33], 60.1%; under setting [34], 38.8%; under setting [35], 31.4%.
In the case of `CC(C)CC(NC(=O)C(Cc1ccccc1)NC(=O)c1cnccn1)B(O)O` (centres undefined), the viability, T/C is 52.6% and 44.3% and 19.1% (compound 0.000949 µM); 10.6% and 12.6% and 7.27% (compound 0.003 µM); 1.45% and 2.68% and 2.76% (compound 0.00949 µM); 0.95% and 1.46% and 2.12% (compound 0.03 µM); 0.72% and 2.31% and 2.54% (compound 0.0949 µM); 0.73% and 2.25% and 1.49% (compound 0.3 µM). The negative-log IC50 (pIC50) (curve of compound) is 8.99 and > 9.02.
